The values below are quoted from earlier work in publication PMC2992174 (Journal of nuclear medicine : official publication, Society …, 2010).

One series has as its system IPA. To be noted: ^111In-labeled peptide, IPA in vivo.

Positions of bridges follow the written chain, without caps; N, C: chain ends. No end group written: not given here.

Take CGGRLGPFC-NH2 (disulfide 1-9): in the series with IPA, the background activity is given as 0.14 ± 0.02 %ID/g and the target uptake is listed as 0.37 ± 0.06 %ID/g. As for Fe-TAFC, the “uptake by Candida albicans” value in the series with Candida albicans is “inefficient”.
